Laboratory results taken from patent publication US5759787A, “Kinase assay” (Tularik Inc., priority 1996, dated 1998).
Where no end group is shown, it is not given here.

Tested on: PKA
Test: Radioactive PKA kinase reaction with phosphocellulose or streptavidin capture
Type: biochemical
Details: substrate peptide
Procedure: The peptide substrates were added in 90 μl assay buffer containing 20 mM Tris-HCl pH 7.5, 2.5 mM MgCl2, and 100 μM ATP for non-radioactive detection, or 10 μM cold ATP supplemented with 0.5 μCi/well [γ-^32 P]ATP for radioactive detection, unless indicated otherwise. Freshly reconstituted PKA (1.25 ng/well in 10 μl, unless indicated otherwise) was added last and the samples were incubated for 30 minutes at room temperature. Depending on the detection method the samples were further processed as described below.
After performing a PKA kinase reaction for 30 minutes, the samples were divided into two. 50 μl were transferred into wells of streptavidin coated microtiter plates, to allow the capture of the biotinylated peptides for additional 50 minutes. The wells were washed five times with water, dried, broken into scintillation vials and counted. The other half of the reaction mixture was further incubated in the original plate for 50 minutes, then TCA was added to the reaction mixture (10% final concentration) and 30 μl was spotted onto P81 paper (1×1 inch squares). After 20 minutes the squares were washed three times with water, dried, placed into scintillation vials and counted. A microtiter plate version of the phosphocellulose capture method was also used with similar results. For src only the phosphocellulose capture method was used.

Km: > 20 µM
Substance: bio-RRRVTSAARRS (not fully specified (N-terminus); printed as bio-RRRVTSAARRS) [peptide 2]
